Non-standard residues stand in square brackets, D forms with d. Residues, ends and D or L forms follow the SMILES beside them. *: point of attachment. Sta = CC(C)C[C@H](N)[C@@H](O)CC(=O)O; Isovaleryl = CC(C)CC(=O)*

The test deals with T1, Paramecium cathepsin L isozymes (30 kDa and 33 kDa) (Paramecium tetraurelia, UniProt Q94714).
T1 construct: identical enzyme proteins were involved, with the proteins possibly only being processed differently; from tissue; host or cells: Paramecium tetraurelia mass cultures (cell homogenate)
T1 sequence (Q94714 110-314): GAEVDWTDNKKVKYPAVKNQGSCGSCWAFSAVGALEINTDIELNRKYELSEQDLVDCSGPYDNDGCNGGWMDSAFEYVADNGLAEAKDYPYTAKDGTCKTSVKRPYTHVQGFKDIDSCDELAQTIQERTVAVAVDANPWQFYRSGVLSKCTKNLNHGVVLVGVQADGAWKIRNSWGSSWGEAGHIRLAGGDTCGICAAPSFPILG
Kind of test: Effect of class-specific protease inhibitors on the purified Paramecium proteases (cathepsin L assay). It is filed as biochemical. The note with it: 32P phosphorylase a as substrate. The method, then: ^32P-Phosphorylase a (approx. 5×10^4 cpm/min) was used as substrate. A test mixture (30 μl) contained 10 μM substrate, 12 mM Tris/HCl (pH 7.0), 50 μM EDTA, 10 mM 2-mercaptoethanol, 5 mM caffeine and 6.7 μg of BSA. The reaction was stopped, after incubating at 30° C. for 10 minutes, by adding 200 μl of trichloroacetic acid (20% w/v). The radioactivity of the non-precipitable peptides was determined in the supernatant following centrifugation. One unit of enzyme activity corresponds to the quantity which liberates 1 μmol of soluble ^32P-phosphopeptide/min.
All the purification steps were carried out at 4° C. The cells were homogenized in 50 mM Tris/HCl (pH 7.0), 5 mM EDTA using a French press. Cell debris were removed by centrifugation (23,000×g, 60 min; 100,000×g, 60 min). The supernatant was loaded onto a DEAE Sepharose® column which was equilibrated with 20 mM Tris/HCl (pH 7.0). About half the protease activity eluted with the flowthrough. The column was washed with 250 mM NaCl. The remaining protease activity was eluted with 450 mM KCl. After that, the active fractions were purified through a Sephacryl® S-100 HR column. The protease eluted at approximately 27 kDa. The pooled active fractions were subsequently loaded onto a mono Q column. Elution was carried out using a linear gradient (60 ml of from 100 to 350 mM NaCl). Two active proteases (30 kDa and 33 kDa) were separated in this step. Purity was examined by means of SDS-PAGE. When using ^32P phosphorylase a as substrate, the pH optimum of the two isozymes was 6.5; the temperature optimum was 56° C.

As to `O=C(O)CN(CCN(CC(=O)O)CC(=O)O)CC(=O)O` [EDTA], the “effect of inhibitor on protease activity” value was “no inhibitory effect”.

Take `Cc1ccc(S(=O)(=O)NC(CCCCN)C(=O)CCl)cc1` (stereo not drawn) [TLCK]: the “effect of inhibitor on protease activity” value is “reduced the activity drastically”.

`CC(=O)N[C@@H](CC(C)C)C(=O)N[C@@H](CC(C)C)C(=O)N[C@H](C=O)CCCNC(=N)N` [leupeptin]: the “effect of inhibitor on protease activity” value is listed as “reduced the activity drastically”.

In the case of `CC(C)CC(=O)N[C@H](C(=O)N[C@H](C(=O)N[C@@H](CC(C)C)[C@@H](O)CC(=O)N[C@@H](C)C(=O)N[C@@H](CC(C)C)[C@@H](O)CC(=O)O)C(C)C)C(C)C` [pepstatin] (Isovaleryl-VV[Sta]A[Sta]-OH), the “effect of inhibitor on protease activity” value is “no inhibitory effect”.

Turning to aprotinin, the “effect of inhibitor on protease activity” value is listed as “no inhibitory effect”.

In the case of cystatin, the “effect of inhibitor on protease activity” value is “reduced the activity drastically”.

For the origin of these results see US6733995B2, “Cathepsin L, its prepro form and the corresponding propeptide from ciliates” (Nutrinova Nutrition Specialties & Food Ingredients GmbH, priority 1996, dated 2004).
